# Measurements taken from ChEMBL document CHEMBL1133393, “Synthesis of 8-chloro-benzo[c]quinolizin-3-ones as potent and selective inhibitors of human steroid 5alpha-reductase 1” (Bioorg Med Chem Lett, 2000).
# Biological target: T1, 3-oxo-5-alpha-steroid 4-dehydrogenase 1 (Homo sapiens, UniProt P18405)
# T1 sequence (P18405 whole entry): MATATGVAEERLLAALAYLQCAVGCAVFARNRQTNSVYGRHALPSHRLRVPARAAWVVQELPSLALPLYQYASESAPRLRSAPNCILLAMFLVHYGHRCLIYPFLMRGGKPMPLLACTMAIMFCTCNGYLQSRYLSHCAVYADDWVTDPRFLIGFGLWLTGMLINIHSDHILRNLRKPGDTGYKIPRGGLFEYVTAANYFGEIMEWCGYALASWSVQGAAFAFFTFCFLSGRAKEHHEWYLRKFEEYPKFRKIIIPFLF
# Experiment: Inhibition of human Steroid 5-alpha-reductase type I
row,IC50 [nM],SMILES
1,459,O=C1C=CN2c3ccc(Cl)cc3CC[C@H]2C1
2,9100,C[C@H]1Cc2cc(Cl)ccc2N2C=CC(=O)C[C@H]12
3,14.4,C[C@@H]1CC2=CC(=O)CCN2c2ccc(Cl)cc21
4,346,C[C@H]1Cc2cc(Cl)ccc2N2CCC(=O)C=C12
5,0.5,CC(C)CCCC(C)[C@H]1CCC2C3C(CC[C@@]21C)[C@@]1(C)CCC(=O)N(C)C1C[C@@H]3C (some centres not stated)
6,49,O=C1C=C2CCc3cc(Cl)ccc3N2CC1
7,188,C[C@@H]1C[C@H]2CC(=O)C=CN2c2ccc(Cl)cc21
